≈ marks a conversion by molar mass, not a printed value.
Experiments:
[1] = test system: Cryptococcus neoformans; assay: Antifungal activity against azole-sensitive Cryptococcus neoformans H99 after 72 hrs by spectrophotometry-based serial microdilution method; type: functional, var grubii H99; conditions: Cryptococcus neoformans, var grubii H99 , 72 h; read-out: MIC80
[2] = test system: Candida albicans; assay: Antifungal activity against azole-sensitive Candida albicans SC5314 after 48 hrs by spectrophotometry-based serial microdilution method; type: functional; conditions: Candida albicans, SC5314, 48 h; read-out: MIC80
[3] = test system: Candida tropicalis; assay: Antifungal activity against azole-resistant Candida tropicalis 5008 after 48 hrs by spectrophotometry-based serial microdilution method; type: functional; conditions: Candida tropicalis, 5008, 48 h
[4] = test system: Candida albicans; assay: Antifungal activity against azole-resistant Candida albicans 7781 after 48 hrs by spectrophotometry-based serial microdilution method; type: functional; conditions: Candida albicans, 7781, 48 h
[5] = test system: Candida albicans; assay: Antifungal activity against azole-resistant Candida albicans 0304103 after 48 hrs by spectrophotometry-based serial microdilution method; type: functional; conditions: Candida albicans, 0304103, 48 h
[6] = test system: Candida albicans; assay: Antifungal activity against azole-resistant Candida albicans 4108 after 48 hrs by spectrophotometry-based serial microdilution method; type: functional; conditions: Candida albicans, 4108, 48 h

With `CN(Cc1ccccc1OCCCOc1ccc(C(=O)NO)cc1)CC(O)(Cn1cncn1)c1ccc(F)cc1F` (racemic) the MIC80 [1] was 0.5 µg/mL (≈ 0.881 µM), the MIC80 [2] was 4 µg/mL (≈ 7.05 µM) and the MIC80 [3] was 8 µg/mL (≈ 14.1 µM). The MIC80 [4] was 4 µg/mL (≈ 7.05 µM), the MIC80 [5] was 4 µg/mL (≈ 7.05 µM) and the MIC80 [6] was 1 µg/mL (≈ 1.76 µM).

`CN(Cc1ccc(-n2cnn(CCCCCCCC(=O)NO)c2=O)cc1)CC(O)(Cn1cncn1)c1ccc(F)cc1F` (racemic) gave an MIC80 [1] of 2 µg/mL (≈ 3.34 µM), an MIC80 [2] of 16 µg/mL (≈ 26.7 µM) and an MIC80 [3] of 8 µg/mL (≈ 13.4 µM). It also gave an MIC80 [4] of 8 µg/mL (≈ 13.4 µM), an MIC80 [5] of 8 µg/mL (≈ 13.4 µM) and an MIC80 [6] of 64 µg/mL (≈ 107 µM).

Work on `CN(Cc1ccc(-n2cnn(CCCCCC(=O)NO)c2=O)cc1)CC(O)(Cn1cncn1)c1ccc(F)cc1F` (racemic) yielded an MIC80 [1] of 8 µg/mL (≈ 14 µM), an MIC80 [2] of 32 µg/mL (≈ 56.1 µM) and an MIC80 [3] of 64 µg/mL (≈ 112 µM). For the same compound, the MIC80 [4] was 32 µg/mL (≈ 56.1 µM), the MIC80 [5] was 16 µg/mL (≈ 28 µM) and the MIC80 [6] was 64 µg/mL (≈ 112 µM).

In the case of `CN(Cc1ccc(-n2cnn(CCCCC(=O)NO)c2=O)cc1)CC(O)(Cn1cncn1)c1ccc(F)cc1F` (racemic), the MIC80 [1] was 64 µg/mL (≈ 115 µM), the MIC80 [2] was 32 µg/mL (≈ 57.5 µM) and the MIC80 [3] was over 64 µg/mL. It also gave an MIC80 [4] of over 64 µg/mL, an MIC80 [5] of 64 µg/mL (≈ 115 µM) and an MIC80 [6] of over 64 µg/mL.

`O=C(Cc1ccc(OCCCOc2ccc(CN(CC(O)(Cn3cncn3)c3ccc(F)cc3F)C3CC3)cc2)cc1)NO` (racemic) gave an MIC80 [1] of 4 µg/mL (≈ 6.58 µM), an MIC80 [2] of 8 µg/mL (≈ 13.2 µM) and an MIC80 [3] of 16 µg/mL (≈ 26.3 µM). It also gave an MIC80 [4] of 4 µg/mL (≈ 6.58 µM), an MIC80 [5] of 8 µg/mL (≈ 13.2 µM) and an MIC80 [6] of 32 µg/mL (≈ 52.7 µM).

With `CN(Cc1ccccc1OCCCOc1ccc(CC(=O)NO)cc1)CC(O)(Cn1cncn1)c1ccc(F)cc1F` (racemic) the MIC80 [1] was 0.5 µg/mL (≈ 0.86 µM), the MIC80 [2] was 1 µg/mL (≈ 1.72 µM) and the MIC80 [3] was 2 µg/mL (≈ 3.44 µM). It also gave an MIC80 [4] of 2 µg/mL (≈ 3.44 µM), an MIC80 [5] of 2 µg/mL (≈ 3.44 µM) and an MIC80 [6] of 2 µg/mL (≈ 3.44 µM).

`CN(Cc1ccc(-n2cnn(CCCOc3ccc(CC(=O)NO)cc3)c2=O)cc1)CC(O)(Cn1cncn1)c1ccc(F)cc1F` (racemic) was tested, and the MIC80 [1] was 8 µg/mL (≈ 12.3 µM), the MIC80 [2] was 64 µg/mL (≈ 98.7 µM) and the MIC80 [3] was 4 µg/mL (≈ 6.17 µM). The MIC80 [4] was 4 µg/mL (≈ 6.17 µM), the MIC80 [5] was 32 µg/mL (≈ 49.3 µM) and the MIC80 [6] was 32 µg/mL (≈ 49.3 µM).

With `CN(Cc1cccc(OCCCOc2ccc(CCC(=O)NO)cc2)c1)CC(O)(Cn1cncn1)c1ccc(F)cc1F` (racemic) the MIC80 [1] was 2 µg/mL (≈ 3.36 µM), the MIC80 [2] was 4 µg/mL (≈ 6.72 µM) and the MIC80 [3] was 8 µg/mL (≈ 13.4 µM). The MIC80 [4] was 8 µg/mL (≈ 13.4 µM), the MIC80 [5] was 8 µg/mL (≈ 13.4 µM) and the MIC80 [6] was 4 µg/mL (≈ 6.72 µM).

Compound `CN(Cc1ccc(OCCCCCCCC(=O)NO)cc1)CC(O)(Cn1cncn1)c1ccc(F)cc1F` (racemic) has an MIC80 [1] of 0.5 µg/mL (≈ 0.941 µM), an MIC80 [2] of 0.25 µg/mL (≈ 0.47 µM) and an MIC80 [3] of 1 µg/mL (≈ 1.88 µM). It also gave an MIC80 [4] of 0.5 µg/mL (≈ 0.941 µM), an MIC80 [5] of 0.5 µg/mL (≈ 0.941 µM) and an MIC80 [6] of 0.5 µg/mL (≈ 0.941 µM).

Compound `CN(Cc1cccc(OCCCOc2ccc(C(=O)NO)cc2)c1)CC(O)(Cn1cncn1)c1ccc(F)cc1F` (racemic) has an MIC80 [1] of 0.125 µg/mL (≈ 0.22 µM), an MIC80 [2] of 1 µg/mL (≈ 1.76 µM) and an MIC80 [3] of 4 µg/mL (≈ 7.05 µM). It also gave an MIC80 [4] of 4 µg/mL (≈ 7.05 µM), an MIC80 [5] of 2 µg/mL (≈ 3.52 µM) and an MIC80 [6] of 2 µg/mL (≈ 3.52 µM).

`CN(Cc1ccc(-n2cnn(CCCCCCCCC(=O)NO)c2=O)cc1)CC(O)(Cn1cncn1)c1ccc(F)cc1F` (racemic) showed an MIC80 [1] of 4 µg/mL (≈ 6.53 µM), an MIC80 [2] of 2 µg/mL (≈ 3.26 µM) and an MIC80 [3] of 8 µg/mL (≈ 13.1 µM). For the same compound, the MIC80 [4] was 4 µg/mL (≈ 6.53 µM), the MIC80 [5] was 4 µg/mL (≈ 6.53 µM) and the MIC80 [6] was 32 µg/mL (≈ 52.2 µM).

`CN(Cc1ccc(-n2cnn(CCCc3ccc(C(=O)NO)cc3)c2=O)cc1)CC(O)(Cn1cncn1)c1ccc(F)cc1F` (racemic) gave an MIC80 [1] of 2 µg/mL (≈ 3.23 µM), an MIC80 [2] of 32 µg/mL (≈ 51.7 µM) and an MIC80 [3] of 8 µg/mL (≈ 12.9 µM). The MIC80 [4] was 2 µg/mL (≈ 3.23 µM), the MIC80 [5] was 4 µg/mL (≈ 6.47 µM) and the MIC80 [6] was 32 µg/mL (≈ 51.7 µM).

`CN(Cc1ccc(CCCC(=O)Nc2ccc(CC(=O)NO)cc2)cc1)CC(O)(Cn1cncn1)c1ccc(F)cc1F` (racemic) gave an MIC80 [1] of 1 µg/mL (≈ 1.69 µM), an MIC80 [2] of 1 µg/mL (≈ 1.69 µM) and an MIC80 [3] of 32 µg/mL (≈ 54 µM). The MIC80 [4] was 1 µg/mL (≈ 1.69 µM), the MIC80 [5] was 1 µg/mL (≈ 1.69 µM) and the MIC80 [6] was 1 µg/mL (≈ 1.69 µM).

`O=C(NO)c1ccc(OCCCc2ncnn2CC(O)(Cn2cncn2)c2ccc(F)cc2F)cc1` (racemic) was tested, and the MIC80 [1] was 64 µg/mL (≈ 128 µM), the MIC80 [2] was 64 µg/mL (≈ 128 µM) and the MIC80 [3] was over 64 µg/mL. The MIC80 [4] was 8 µg/mL (≈ 16 µM), the MIC80 [5] was 32 µg/mL (≈ 64.1 µM) and the MIC80 [6] was 64 µg/mL (≈ 128 µM).

With `O=C(NO)c1ccc(OCCCCc2ncn(CC(O)(Cn3cncn3)c3ccc(F)cc3F)n2)cc1` (racemic) the MIC80 [1] was 64 µg/mL (≈ 125 µM), the MIC80 [2] was 4 µg/mL (≈ 7.79 µM) and the MIC80 [3] was over 64 µg/mL. For the same compound, the MIC80 [4] was 64 µg/mL (≈ 125 µM), the MIC80 [5] was over 64 µg/mL and the MIC80 [6] was over 64 µg/mL.

For `CN(Cc1ccc(CCCCOc2ccc(CC(=O)NO)cc2)cc1)CC(O)(Cn1cncn1)c1ccc(F)cc1F` (racemic), the MIC80 [1] was 0.5 µg/mL (≈ 0.863 µM), the MIC80 [2] was 0.125 µg/mL (≈ 0.216 µM) and the MIC80 [3] was 0.5 µg/mL (≈ 0.863 µM). For the same compound, the MIC80 [4] was 1 µg/mL (≈ 1.73 µM), the MIC80 [5] was 0.5 µg/mL (≈ 0.863 µM) and the MIC80 [6] was 1 µg/mL (≈ 1.73 µM).

`CCN(Cc1ccc(OCCCOc2ccc(CC(=O)NO)cc2)cc1)CC(O)(Cn1cncn1)c1ccc(F)cc1F` (racemic) gave an MIC80 [1] of 1 µg/mL (≈ 1.68 µM), an MIC80 [2] of 0.25 µg/mL (≈ 0.42 µM) and an MIC80 [3] of 4 µg/mL (≈ 6.72 µM). The MIC80 [4] was 1 µg/mL (≈ 1.68 µM), the MIC80 [5] was 1 µg/mL (≈ 1.68 µM) and the MIC80 [6] was 4 µg/mL (≈ 6.72 µM).

`CN(Cc1ccc(OCCCCCC(=O)NO)cc1)CC(O)(Cn1cncn1)c1ccc(F)cc1F` (racemic) showed an MIC80 [1] of 1 µg/mL (≈ 1.99 µM), an MIC80 [2] of 1 µg/mL (≈ 1.99 µM) and an MIC80 [3] of 8 µg/mL (≈ 15.9 µM). For the same compound, the MIC80 [4] was 1 µg/mL (≈ 1.99 µM), the MIC80 [5] was 2 µg/mL (≈ 3.97 µM) and the MIC80 [6] was 4 µg/mL (≈ 7.94 µM).

Source: ChEMBL document CHEMBL4342527, “Discovery of Novel Fungal Lanosterol 14α-Demethylase (CYP51)/Histone Deacetylase Dual Inhibitors to Treat Azole-Resistant Candidiasis” (J Med Chem, 2020)
